Experimental findings from patent US8586617B2, “Aminomethyl-4-imidazoles” (Hoffmann-La Roche Inc., priority 2006, dated 2013) are described below.

SMILES strings stand for the structures.

Sequence of TAAR1 (Q923Y8 whole entry): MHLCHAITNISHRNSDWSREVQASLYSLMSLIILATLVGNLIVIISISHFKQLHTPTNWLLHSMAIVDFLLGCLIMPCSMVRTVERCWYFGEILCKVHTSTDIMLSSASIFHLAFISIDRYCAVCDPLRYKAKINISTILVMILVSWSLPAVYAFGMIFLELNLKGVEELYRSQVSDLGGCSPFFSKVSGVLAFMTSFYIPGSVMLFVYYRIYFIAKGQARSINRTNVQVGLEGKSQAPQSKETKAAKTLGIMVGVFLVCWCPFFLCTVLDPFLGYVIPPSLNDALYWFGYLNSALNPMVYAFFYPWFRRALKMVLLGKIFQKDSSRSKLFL

The assay has as its target TAAR1 (Mus musculus (Mouse), UniProt Q923Y8). Put plainly: TAAR1 radioligand binding assay ([3H]-rac-2-(1,2,3,4-tetrahydro-1-naphthyl)-2-imidazoline, membranes of stably transfected HEK293 cells). The conditions noted are these: read-out: Ki (μM) mouse; mouse TAAR1; radioligand [3H]-rac-2-(1,2,3,4-tetrahydro-1-naphthyl)-2-imidazoline at 60 nM; 4° C., 30 minutes.
Description: The ability of the compounds of the present invention to bind to TAAR1 was investigated in accordance with the test given hereinafter.
For the generation of stably transfected cell lines HEK293 cells were transfected with the pIRESneo2 expression plasmids containing the TAAR coding sequences (described above) with Lipofectamine 2000 (Invitrogen) according to the instructions of the manufacturer, and 24 hours post transfection the culture medium was supplemented with 1 mg/ml G418 (Sigma, Buchs, Switzerland). After a culture period of about 10 days, clones were isolated, expanded and tested for responsiveness to trace amines (all compounds purchased from Sigma) with the cAMP Biotrak Enzyme immunoassay (EIA) System (Amersham) following the non-acetylation EIA procedure provided by the manufacturer.
Cells at confluence were rinsed with ice-cold phosphate buffered saline without Ca^2+ and Mg^2+ containing 10 mM EDTA and pelleted by centrifugation at 1000 rpm for 5 min at 4° C. The pellet was then washed twice with ice-cold phosphate buffered saline and cell pellet was frozen immediately by immersion in liquid nitrogen and stored until use at −80° C. The cell pellet was then suspended in 20 ml HEPES-NaOH (20 mM), pH 7.4 containing 10 mM EDTA, and homogenized with a Polytron (PT 3000, Kinematica) at 10,000 rpm for 10 seconds. The homogenate was centrifuged at 48,000×g for 30 minutes at 4° C. and the pellet resuspended in 20 ml HEPES-NaOH (20 mM), pH 7.4 containing 0.1 mM EDTA (buffer A), and homogenized with a Polytron at 10,000 rpm for 10 seconds. The homogenate was then centrifuged at 48,000×g for 30 minutes at 4° C. and the pellet resuspended in 20 ml buffer A, and homogenized with a Polytron at 10,000 rpm for 10 seconds. […] The homogenate was then centrifuged at 48,000×g for 10 minutes at 4° C., resuspended in HEPES-NaOH (20 mM), pH 7.0 including MgCl2 (10 mM) and CaCl2 (2 ml) (buffer B) at 200 μg protein per ml and homogenized with a Polytron at 10,000 rpm for 10 seconds.
Binding assay was performed at 4° C. in a final volume of 1 ml, and with an incubation time of 30 minutes. […] Non-specific binding was defined as the amount of [^3H]-rac-2-(1,2,3,4-tetrahydro-1-naphthyl)-2-imidazoline bound in the presence of the appropriate unlabelled ligand (10 μM). Competing ligands were tested in a wide range of concentrations (10 pM-30 μM). […] Each experiment was performed in duplicate. All incubations were terminated by rapid filtration through UniFilter-96 plates (Packard Instrument Company) and glass filter GF/C, pre-soaked for at least 2 h in polyethylenimine 0.3%, and using a Filtermate 96 Cell Harvester (Packard Instrument Company). The tubes and filters were then washed 3 times with 1 ml aliquots of cold buffer B. Filters were not dried and soaked in Ultima gold (45 D/well, Packard Instrument Company) and bound radioactivity was counted by a TopCount Microplate Scintillation Counter (Packard Instrument Company).
Consider `CCN(Cc1cnc[nH]1)c1cccc(C)c1` [Example 6, Ethyl-(3H-imidazol-4-ylmethyl)-m-tolyl-amine], for which the Ki – broadly, a dissociation constant, usually derived from enzyme kinetics or from competition with a known ligand – is 0.0018 µM. For `CN(Cc1cnc[nH]1)c1ccc(Cl)cc1` [Example 10, (4-Chloro-phenyl)-(3H-imidazol-4-ylmethyl)-methyl-amine], the Ki was determined as 0.0045 µM. In the case of `Clc1cccc(N(Cc2cnc[nH]2)Cc2ccccc2Cl)c1` [Example 18, (2-Chloro-benzyl)-(3-chloro-phenyl)-(1H-imidazol-4-ylmethyl)-amine], the Ki came to 0.0039 µM. The same measure for `Clc1cccc(CN(Cc2cnc[nH]2)c2cccc(Cl)c2)c1` [Example 19, (3-Chloro-benzyl)-(3-chloro-phenyl)-(1H-imidazol-4-ylmethyl)-amine]: 0.0077 µM; for `Clc1ccc(CN(Cc2cnc[nH]2)c2cccc(Cl)c2)cc1` [Example 20, (4-Chloro-benzyl)-(3-chloro-phenyl)-(1H-imidazol-4-ylmethyl)-amine]: 0.0059 µM; for `Clc1cccc(N(Cc2ccccc2)Cc2cnc[nH]2)c1` [Example 21, Benzyl-(3-chloro-phenyl)-(1H-imidazol-4-ylmethyl)-amine]: 0.0078 µM.

As for `CC(C)N(Cc1cnc[nH]1)c1cc(Cl)cc(Cl)c1` [Example 24, (3,5-Dichloro-phenyl)-(3H-imidazol-4-ylmethyl)-isopropyl-amine], the Ki came out at 0.001 µM. Take `Cc1cccc(N(Cc2cnc[nH]2)C(C)C)c1` [Example 26, (3H-Imidazol-4-ylmethyl)-isopropyl-m-tolyl-amine]: the Ki was 0.0034 µM. Regarding `CC(C)N(Cc1cnc[nH]1)c1cccc(C(F)(F)F)c1` [Example 27, (3H-Imidazol-4-ylmethyl)-isopropyl-(3-trifluoromethyl-phenyl)-amine], the Ki amounted to 0.0023 µM. Regarding `CC(C)N(Cc1cnc[nH]1)c1ccc(Cl)c(C(F)(F)F)c1` [Example 31, (4-Chloro-3-trifluoromethyl-phenyl)-(3H-imidazol-4-ylmethyl)-isopropyl-amine], the Ki stood at 0.0045 µM. As for `CC(C)N(Cc1cnc[nH]1)c1ccc(OC(F)(F)F)c(Cl)c1` [Example 33, (3-Chloro-4-trifluoromethoxy-phenyl)-(3H-imidazol-4-ylmethyl)-isopropyl-amine], the Ki is 0.0028 µM.

`Clc1cccc(N(Cc2cnc[nH]2)CC2CC2)c1` [Example 51, (3-Chloro-phenyl)-cyclopropylmethyl-(3H-imidazol-4-ylmethyl)-amine]: the inhibitory constant (Ki) stood at 0.0009 µM. Consider `CC(C1CC1)N(Cc1cnc[nH]1)c1cccc(Cl)c1` (stereo not shown) [Example 52, (3-Chloro-phenyl)-(1-cyclopropylethyl)-(3H-imidazol-4-ylmethyl)-amine], for which the Ki was 0.004 µM. As to `CC(C)N(Cc1cnc[nH]1)c1ccc(F)c(Cl)c1` [Example 53, (3-Chloro-4-fluoro-phenyl)-(3H-imidazol-4-ylmethyl)-isopropyl-amine], the Ki turned out to be 0.0015 µM.

On to `CCN(Cc1cnc[nH]1)c1ccc(Cl)cc1` [Example 57, (4-Chloro-phenyl)-ethyl-(3H-imidazol-4-ylmethyl)-amine], for which the Ki worked out at 0.0014 µM. With `CCN(Cc1cnc[nH]1)c1ccc(F)c(F)c1` [Example 58, (3,4-Difluoro-phenyl)-ethyl-(3H-imidazol-4-ylmethyl)-amine], the Ki stood at 0.0014 µM. The same measure for `CC(C)N(Cc1cnc[nH]1)c1ccc(OC(F)(F)F)cc1` [Example 67, (3H-Imidazol-4-ylmethyl)-isopropyl-(4-trifluoromethoxy-phenyl)-amine]: 0.0067 µM; for `CC(C)N(Cc1cnc[nH]1)c1ccc2ccccc2c1` [Example 70, (3H-Imidazol-4-ylmethyl)-isopropyl-naphthalen-2-yl-amine]: 0.0082 µM; for `CC(C)N(Cc1cnc[nH]1)c1ccc2c(c1)CCC2` [Example 73, (3H-Imidazol-4-ylmethyl)-indan-5-yl-isopropyl-amine]: 0.0055 µM. Regarding `CC(C)N(Cc1cnc[nH]1)c1cc(F)cc(Cl)c1` [Example 76, (3-Chloro-5-fluoro-phenyl)-(3H-imidazol-4-ylmethyl)-isopropyl-amine], the Ki stood at 0.0011 µM. For the compound `CC(C)N(Cc1cnc[nH]1)c1ccc(F)c(F)c1` [Example 77, (3,4-Difluoro-phenyl)-(3H-imidazol-4-ylmethyl)-isopropyl-amine], the Ki came to 0.0053 µM. Regarding `CC(C)N(Cc1cnc[nH]1)c1cc(Cl)ccc1F` [Example 78, (5-Chloro-2-fluoro-phenyl)-(3H-imidazol-4-ylmethyl)-isopropyl-amine], the Ki came out at 0.0052 µM. For the compound `CCN(Cc1cnc[nH]1)c1cccc(Cl)c1F` [Example 81, (3-Chloro-2-fluoro-phenyl)-ethyl-(3H-imidazol-4-ylmethyl)-amine], the inhibition constant Ki was found to be 0.0036 µM. Take `CCN(Cc1cnc[nH]1)c1ccc2ccccc2c1` [Example 82, Ethyl-(3H-imidazol-4-ylmethyl)-naphthalen-2-yl-amine]: the Ki was 0.0012 µM. Take `CC(C)N(Cc1cnc[nH]1)c1cc(F)cc(F)c1` [Example 101, (3,5-Difluoro-phenyl)-(3H-imidazol-4-ylmethyl)-isopropyl-amine]: the Ki turned out to be 0.003 µM. For `COc1c(F)ccc(N(Cc2cnc[nH]2)C(C)C)c1F` [Example 102, (2,4-Difluoro-3-methoxy-phenyl)-(3H-imidazol-4-ylmethyl)-isopropyl-amine], the Ki stood at 0.006 µM.

Turning to `Cc1cc(N(Cc2cnc[nH]2)C(C)C)ccc1F` [Example 109, (4-Fluoro-3-methyl-phenyl)-(3H-imidazol-4-ylmethyl)-isopropyl-amine], the Ki was 0.0041 µM.

As to `CC(C)Oc1cccc(N(Cc2cnc[nH]2)C(C)C)c1` [Example 110, (3H-Imidazol-4-ylmethyl)-(3-isopropoxy-phenyl)-isopropyl-amine], the Ki is 0.0067 µM. For the compound `CC(C)N(Cc1cnc[nH]1)c1cccc(OCc2ccccc2)c1` [Example 114, (3-Benzyloxy-phenyl)-(3H-imidazol-4-ylmethyl)-isopropyl-amine], the Ki is 0.0041 µM. The same measure for `CC(C)N(Cc1cnc[nH]1)c1cccc(OC(F)(F)F)c1` [Example 115, (3H-Imidazol-4-ylmethyl)-isopropyl-(3-trifluoromethoxy-phenyl)-amine]: 0.009 µM.

For `CC(C)N(Cc1cnc[nH]1)c1cccc(Oc2ccccc2)c1` [Example 123, (3H-Imidazol-4-ylmethyl)-isopropyl-(3-phenoxy-phenyl)-amine], the Ki stood at 0.0021 µM. Regarding `CC(C)N(Cc1cnc[nH]1)c1cccc(OC(F)(F)C(F)F)c1` [Example 125, (3H-Imidazol-4-ylmethyl)-isopropyl-[3-(1,1,2,2-tetrafluoro-ethoxy)-phenyl]-amine], the inhibition constant (Ki) was 0.0044 µM.

For the compound `Cc1ccc(N(Cc2cnc[nH]2)C(C)C)cc1Cl` [Example 128, (3-Chloro-4-methyl-phenyl)-(1H-imidazol-4-ylmethyl)-isopropyl-amine], the Ki was found to be 0.0023 µM.

For the compound `CCN(Cc1cnc[nH]1)c1ccc(C)c(C)c1` [Example 130, (3,4-Dimethyl-phenyl)-ethyl-(1H-imidazol-4-ylmethyl)-amine], the Ki is 0.0039 µM. In the case of `CC(C)N(Cc1cnc[nH]1)c1ccc(OCc2ccccc2)c(Cl)c1` [Example 133, (4-Benzyloxy-3-chloro-phenyl)-(1H-imidazol-4-ylmethyl)-isopropyl-amine], the Ki was determined as 0.0077 µM.

Regarding `CCN(Cc1cnc[nH]1)c1ccc(Oc2ccc(Cl)cc2)c(Cl)c1` [Example 139, [3-Chloro-4-(4-chloro-phenoxy)-phenyl]-ethyl-(1H-imidazol-4-ylmethyl)-amine], the Ki was 0.0039 µM. For the compound `CC(C)N(Cc1cnc[nH]1)c1cccc(Cc2ccccc2)c1` [Example 141, (3-Benzyl-phenyl)-(3H-imidazol-4-ylmethyl)-isopropyl-amine], the Ki turned out to be 0.0015 µM. On to `CC(C)N(Cc1cnc[nH]1)c1cccc(-c2ccccc2)c1` [Example 142, Biphenyl-3-yl-(3H-imidazol-4-ylmethyl)-isopropyl-amine], for which the Ki was 0.0079 µM.

Take `CC(C)N(Cc1cnc[nH]1)c1cccc(Oc2ccc(Cl)cc2)c1` [Example 149, [3-(4-Chloro-phenoxy)-phenyl]-(3H-imidazol-4-ylmethyl)-isopropyl-amine]: the Ki is 0.0082 µM.

Consider `c1ccc(Nc2ccc(NCc3cnc[nH]3)cc2)cc1` [Example 155, N-(1H-Imidazol-4-ylmethyl)-N′-phenyl-benzene-1,4-diamine], for which the Ki was 0.0094 µM. Turning to `CC(C)N(Cc1cnc[nH]1)c1ccc(F)c(Br)c1` [Example 170, (3-Bromo-4-fluoro-phenyl)-(3H-imidazol-4-ylmethyl)-isopropyl-amine], the Ki was determined as 0.0025 µM. As for `CN(Cc1cnc[nH]1)c1cccc(Oc2ccccc2)c1` [Example 175, (3H-Imidazol-4-ylmethyl)-methyl-(3-phenoxy-phenyl)-amine], the Ki is 0.0036 µM.

Turning to `Fc1cc(Cl)cc(NCc2cnc[nH]2)c1` [Example 179, (3-Chloro-5-fluoro-phenyl)-(1H-imidazol-4-ylmethyl)-amine], the Ki worked out at 0.0026 µM. The same measure for `Fc1cc(NCc2cnc[nH]2)ccc1Br` [Example 181, (4-Bromo-3-fluoro-phenyl)-(1H-imidazol-4-ylmethyl)-amine]: 0.0098 µM. `Fc1ccc(NCc2cnc[nH]2)cc1Br` [Example 183, (3-Bromo-4-fluoro-phenyl)-(3H-imidazol-4-ylmethyl)-amine]: the Ki was 0.0051 µM. Consider `COc1cccc(N(C)Cc2cnc[nH]2)c1` [Example 186, (3H-Imidazol-4-ylmethyl)-(3-methoxy-phenyl)-methyl-amine], for which the inhibition constant Ki turned out to be 0.0089 µM. The same measure for `CCN(Cc1cnc[nH]1)c1cccc(Oc2ccccc2)c1` [Example 188, Ethyl-(3H-imidazol-4-ylmethyl)-(3-phenoxy-phenyl)-amine]: 0.0024 µM; for `CN(Cc1cnc[nH]1)c1cccc(OC(F)F)c1` [Example 189, (3-Difluoromethoxy-phenyl)-(3H-imidazol-4-ylmethyl)-methyl-amine]: 0.0068 µM; for `CN(Cc1cnc[nH]1)c1cccc(OCc2ccccc2)c1` [Example 190, (3-Benzyloxy-phenyl)-(3H-imidazol-4-ylmethyl)-methyl-amine]: 0.0014 µM.
